# Test results reported in PMC5218480 (PLoS ONE, 2017).
# Test system: MV-4-11 cells
# Test: Gene expression microarray analysis (Affymetrix PrimeView) and GSEA
# Assay type: cell-based, human
# Set-up: RFU PODN (11730768_x_at) / Fold change /veh PODN (11730768_x_at) / RFU LINC00158 (11744669_a_at) / Fold change /veh LINC00158 (11744669_a_at) / RFU DUSP10 (11751237_a_at) / Fold change /veh DUSP10 (11751237_a_at) / RFU ID3 (11757404_x_at) / Fold change /veh ID3 (11757404_x_at) / RFU PLEKHG5 (11737974_s_at) / Fold change /veh PLEKHG5 (11737974_s_at) / RFU LRRC4B (11730491_at) / Fold change /veh LRRC4B (11730491_at) / RFU GIMAP4 (11747438_a_at) / Fold change /veh GIMAP4 (11747438_a_at) / RFU KRT8 (11758183_x_at) / Fold change /veh KRT8 (11758183_x_at) / RFU CNN1 (11734310_a_at) / Fold change /veh CNN1 (11734310_a_at) / RFU VPS37D (11726825_at) / Fold change /veh VPS37D (11726825_at) / RFU C10orf10 (11716522_x_at) / Fold change /veh C10orf10 (11716522_x_at) / RFU KIR2DL2 /// KIR2DL4 /// KIR2DL5A /// KIR2DL5B /// KIR2DS1 /// KIR2DS2 /// KIR2DS3 /// KIR2DS4 /// KIR3DL3 /// KIR3DL3 /// KIR3DS1 (11738374_at) / Fold change /veh KIR2DL2 /// KIR2DL4 /// KIR2DL5A /// KIR2DL5B /// KIR2DS1 /// KIR2DS2 /// KIR2DS3 /// KIR2DS4 /// KIR3DL3 /// KIR3DL3 /// KIR3DS1 (11738374_at) / RFU C1QL1 (11718748_at) / Fold change /veh C1QL1 (11718748_at) / RFU TMPRSS4 (11747572_a_at) / Fold change /veh TMPRSS4 (11747572_a_at) / RFU HAMP (11756126_x_at) / Fold change /veh HAMP (11756126_x_at) / RFU RNFT2 (11725882_a_at) / Fold change /veh RNFT2 (11725882_a_at) / RFU NR4A2 (11747474_a_at) / Fold change /veh NR4A2 (11747474_a_at) / RFU ABCC12 (11746883_a_at) / Fold change /veh ABCC12 (11746883_a_at) / RFU TMEM136 (11760407_x_at) / Fold change /veh TMEM136 (11760407_x_at) / RFU CLDN22 /// WWC2 (11732394_at) / Fold change /veh CLDN22 /// WWC2 (11732394_at) / RFU HLA-DPB1 (11760878_x_at) / Fold change /veh HLA-DPB1 (11760878_x_at) / RFU SPINT1 (11716480_a_at) / Fold change /veh SPINT1 (11716480_a_at) / RFU GAP43 (11754022_s_at) / Fold change /veh GAP43 (11754022_s_at) / RFU A4GNT (11735810_at) / Fold change /veh A4GNT (11735810_at) / RFU PRB3 (11715151_x_at) / Fold change /veh PRB3 (11715151_x_at) / RFU TUBB4B (11761932_at) / Fold change /veh TUBB4B (11761932_at) / RFU CAPN14 (11732068_a_at) / Fold change /veh CAPN14 (11732068_a_at) / RFU TMCC2 (11721928_a_at) / Fold change /veh TMCC2 (11721928_a_at) / RFU IRGQ (11745062_a_at) / Fold change /veh IRGQ (11745062_a_at) / RFU FAM174B (11720279_a_at) / Fold change /veh FAM174B (11720279_a_at) / RFU TMPRSS4 (11748680_a_at) / Fold change /veh TMPRSS4 (11748680_a_at) / RFU FAM212B (11763350_a_at) / Fold change /veh FAM212B (11763350_a_at) / RFU PLEKHG5 (11743358_a_at) / Fold change /veh PLEKHG5 (11743358_a_at) / RFU ZSCAN30 (11745921_a_at) / Fold change /veh ZSCAN30 (11745921_a_at) / RFU CMKLR1 (11741424_a_at) / Fold change /veh CMKLR1 (11741424_a_at) / RFU LOC101060620 /// MAPK8IP1 (11723275_at) / Fold change /veh LOC101060620 /// MAPK8IP1 (11723275_at) / RFU SPTSSB (11747773_x_at) / Fold change /veh SPTSSB (11747773_x_at) / RFU PRSS12 (11739890_at) / Fold change /veh PRSS12 (11739890_at) / RFU BIN1 (11741810_x_at) / Fold change /veh BIN1 (11741810_x_at) / RFU WNT11 (11732464_a_at) / Fold change /veh WNT11 (11732464_a_at) / RFU C10orf10 (11716521_a_at) / Fold change /veh C10orf10 (11716521_a_at) / RFU C5orf56 (11738089_at) / Fold change /veh C5orf56 (11738089_at) / RFU CYB561 (11721691_x_at) / Fold change /veh CYB561 (11721691_x_at) / RFU ANKRD19P (11752326_a_at) / Fold change /veh ANKRD19P (11752326_a_at) / RFU OR2T12 /// OR2T33 /// OR2T8 (11738714_s_at) / Fold change /veh OR2T12 /// OR2T33 /// OR2T8 (11738714_s_at) / RFU VCAN (11748164_a_at) / Fold change /veh VCAN (11748164_a_at) / RFU JSRP1 (11732532_at) / Fold change /veh JSRP1 (11732532_at) / RFU KRTAP10-11 (11738290_x_at) / Fold change /veh KRTAP10-11 (11738290_x_at) / RFU MYO3A (11730013_a_at) / Fold change /veh MYO3A (11730013_a_at) / RFU EBF3 (11725865_a_at) / Fold change /veh EBF3 (11725865_a_at) / RFU CAMK2N1 (11719241_x_at) / Fold change /veh CAMK2N1 (11719241_x_at) / RFU C5orf56 (11738088_a_at) / Fold change /veh C5orf56 (11738088_a_at) / RFU OLFML3 (11715873_a_at) / Fold change /veh OLFML3 (11715873_a_at) / RFU LOC100653217 /// NTM (11731650_a_at) / Fold change /veh LOC100653217 /// NTM (11731650_a_at) / RFU MAPK11 (11762145_a_at) / Fold change /veh MAPK11 (11762145_a_at) / RFU FIZ1 (11724087_x_at) / Fold change /veh FIZ1 (11724087_x_at) / RFU OASL (11726364_x_at) / Fold change /veh OASL (11726364_x_at) / RFU SOX15 (11748057_x_at) / Fold change /veh SOX15 (11748057_x_at) / RFU CD79A (11719716_a_at) / Fold change /veh CD79A (11719716_a_at) / RFU HIST1H1D (11736915_at) / Fold change /veh HIST1H1D (11736915_at) / RFU CASKIN2 (11723855_a_at) / Fold change /veh CASKIN2 (11723855_a_at) / RFU LOC730098 (11760151_x_at) / Fold change /veh LOC730098 (11760151_x_at) / RFU OR4N2 (11742367_at) / Fold change /veh OR4N2 (11742367_at) / RFU PRRT2 (11749266_a_at) / Fold change /veh PRRT2 (11749266_a_at) / RFU SNX32 (11753110_a_at) / Fold change /veh SNX32 (11753110_a_at) / RFU CDHR5 (11726645_a_at) / Fold change /veh CDHR5 (11726645_a_at) / RFU RCAN1 (11760418_a_at) / Fold change /veh RCAN1 (11760418_a_at) / RFU FAM167A (11723789_a_at) / Fold change /veh FAM167A (11723789_a_at) / RFU FAM26E (11764081_at) / Fold change /veh FAM26E (11764081_at) / RFU ISYNA1 (11749810_s_at) / Fold change /veh ISYNA1 (11749810_s_at) / RFU ACY1 (11761880_at) / Fold change /veh ACY1 (11761880_at) / RFU 11764098_at / Fold change /veh 11764098_at / RFU SAMD14 (11745864_x_at) / Fold change /veh SAMD14 (11745864_x_at) / RFU NPB (11741838_a_at) / Fold change /veh NPB (11741838_a_at) / RFU TMPRSS6 (11731388_a_at) / Fold change /veh TMPRSS6 (11731388_a_at) / RFU KRTAP10-2 (11738614_at) / Fold change /veh KRTAP10-2 (11738614_at) / RFU ARHGAP8 /// PRR5-ARHGAP8 (11727945_x_at) / Fold change /veh ARHGAP8 /// PRR5-ARHGAP8 (11727945_x_at) / RFU KRTAP5-7 /// NADSYN1 (11734609_at) / Fold change /veh KRTAP5-7 /// NADSYN1 (11734609_at) / RFU RASL12 (11751679_a_at) / Fold change /veh RASL12 (11751679_a_at) / RFU CDKN2B (11736163_a_at) / Fold change /veh CDKN2B (11736163_a_at) / RFU PRF1 (11729649_at) / Fold change /veh PRF1 (11729649_at) / RFU, ZNF638 /// ZNF638-IT1 / Fold change vs veh, ZNF638 /// ZNF638-IT1 / RFU, PANK3 / Fold change vs veh, PANK3 / RFU, SH3YL1 / Fold change vs veh, SH3YL1 / RFU, ZEB2 / Fold change vs veh, ZEB2 / RFU, NRIP1 / Fold change vs veh, NRIP1 / RFU, PTTG1IP / Fold change vs veh, PTTG1IP / RFU, CAPN2 / Fold change vs veh, CAPN2 / RFU, MED14 / Fold change vs veh, MED14 / RFU, SNORA58 / Fold change vs veh, SNORA58 / RFU, C1orf63 / Fold change vs veh, C1orf63 / RFU, LRRFIP1 / Fold change vs veh, LRRFIP1 / RFU, NDUFAF7 / Fold change vs veh, NDUFAF7 / RFU, SLC12A2 / Fold change vs veh, SLC12A2 / RFU, IBTK / Fold change vs veh, IBTK / RFU, ESF1 / Fold change vs veh, ESF1 / Fold change vs veh, TMEM50B / RFU, TAOK1 / Fold change vs veh, TAOK1 / RFU, ACBD3 / Fold change vs veh, ACBD3 / RFU, TMA16 / Fold change vs veh, TMA16 / RFU, RWDD3 / Fold change vs veh, RWDD3 / RFU, BCAT1 / Fold change vs veh, BCAT1 / RFU, EDEM3 / Fold change vs veh, EDEM3 / RFU, TMEM33 / Fold change vs veh, TMEM33 / RFU, WDR75 / Fold change vs veh, WDR75 / RFU, AHCTF1 / Fold change vs veh, AHCTF1 / RFU, TFRC / Fold change vs veh, TFRC / RFU, ZDHHC17 / Fold change vs veh, ZDHHC17 / RFU, NOM1 / Fold change vs veh, NOM1 / RFU, ARL8B / Fold change vs veh, ARL8B / RFU, ZBTB11 / Fold change vs veh, ZBTB11 / RFU, TAMM41 / Fold change vs veh, TAMM41 / RFU, KIAA1704 /// LOC100996395 / Fold change vs veh, KIAA1704 /// LOC100996395 / RFU, ING1 / Fold change vs veh, ING1 / RFU, TRMT61B / Fold change vs veh, TRMT61B / RFU, FUBP3 / Fold change vs veh, FUBP3 / RFU, TP53 / Fold change vs veh, TP53 / RFU, TNKS2 / Fold change vs veh, TNKS2 / RFU, ZFP14 / Fold change vs veh, ZFP14 / RFU, ACTR2 / Fold change vs veh, ACTR2 / RFU, PPP3R1 / Fold change vs veh, PPP3R1 / RFU, PIK3R1 / Fold change vs veh, PIK3R1 / RFU, HNRNPA1 / Fold change vs veh, HNRNPA1 / RFU, RNF170 / Fold change vs veh, RNF170 / RFU, ZNF28 / Fold change vs veh, ZNF28 / RFU, RNGTT / Fold change vs veh, RNGTT / RFU, OGT / Fold change vs veh, OGT / RFU, BRD1 / Fold change vs veh, BRD1 / RFU, MARS / Fold change vs veh, MARS / RFU, ZNF655 / Fold change vs veh, ZNF655 / RFU, FAHD1 / Fold change vs veh, FAHD1 / RFU, BDP1 / Fold change vs veh, BDP1 / RFU, LRRCC1 / Fold change vs veh, LRRCC1 / RFU, ARID1A / Fold change vs veh, ARID1A / RFU, ZNF146 / Fold change vs veh, ZNF146 / RFU, ZNF330 / Fold change vs veh, ZNF330 / RFU, GPN3 / Fold change vs veh, GPN3 / RFU, C9orf123 / Fold change vs veh, C9orf123 / RFU, N4BP2L2 / Fold change vs veh, N4BP2L2 / RFU, ARFIP1 / Fold change vs veh, ARFIP1 / RFU, FAM179B / Fold change vs veh, FAM179B / RFU, BCL10 / Fold change vs veh, BCL10 / RFU, UHRF1BP1L / Fold change vs veh, UHRF1BP1L / RFU, BET1 / Fold change vs veh, BET1 / RFU, CNOT2 / Fold change vs veh, CNOT2 / RFU, ZNF268 / Fold change vs veh, ZNF268 / Fold change vs veh, ZNF507 / RFU, DGCR2 / Fold change vs veh, DGCR2 / RFU, WDSUB1 / Fold change vs veh, WDSUB1 / Fold change vs veh, HSP90B1 /// MIR3652 / RFU, ADSS / Fold change vs veh, ADSS / RFU, GK / Fold change vs veh, GK / RFU, ZNF148 / Fold change vs veh, ZNF148 / RFU, TAF9 / Fold change vs veh, TAF9 / RFU, SLC1A5 / Fold change vs veh, SLC1A5 / RFU, SLMO2 / Fold change vs veh, SLMO2 / RFU, ABCC4 / Fold change vs veh, ABCC4 / RFU, LOC101060439 /// RAP1B / Fold change vs veh, LOC101060439 /// RAP1B / RFU, RFX7 / Fold change vs veh, RFX7 / RFU, GTPBP10 / Fold change vs veh, GTPBP10 / RFU, CNEP1R1 / Fold change vs veh, CNEP1R1 / RFU, BIVM-ERCC5 /// ERCC5 / Fold change vs veh, BIVM-ERCC5 /// ERCC5 / RFU, ILF3 / Fold change vs veh, ILF3 / RFU 11762660_at / Fold change /veh 11762660_at / RFU VCAN (11757783_s_at) / Fold change /veh VCAN (11757783_s_at) / RFU DDX43 (11728927_at) / Fold change /veh DDX43 (11728927_at) / RFU KRT8 (11758188_x_at) / Fold change /veh KRT8 (11758188_x_at) / RFU NKD1 (11759106_at) / Fold change /veh NKD1 (11759106_at) / RFU SRD5A1 (11742802_a_at) / Fold change /veh SRD5A1 (11742802_a_at) / RFU TPSAB1 /// TPSB2 (11721975_s_at) / Fold change /veh TPSAB1 /// TPSB2 (11721975_s_at) / RFU GSTM3 (11746129_a_at) / Fold change /veh GSTM3 (11746129_a_at) / RFU IL23R (11737362_x_at) / Fold change /veh IL23R (11737362_x_at) / RFU TMEM51 (11727254_a_at) / Fold change /veh TMEM51 (11727254_a_at) / RFU PIWIL2 (11732686_x_at) / Fold change /veh PIWIL2 (11732686_x_at) / RFU ORM1 (11744905_x_at) / Fold change /veh ORM1 (11744905_x_at) / RFU CCDC152 (11743942_at) / Fold change /veh CCDC152 (11743942_at) / RFU ECM1 (11717891_a_at) / Fold change /veh ECM1 (11717891_a_at) / RFU IL23R (11748794_a_at) / Fold change /veh IL23R (11748794_a_at) / RFU TNFAIP8L3 (11732012_x_at) / Fold change /veh TNFAIP8L3 (11732012_x_at) / RFU MBOAT4 (11741988_at) / Fold change /veh MBOAT4 (11741988_at) / RFU 11764193_at / Fold change /veh 11764193_at / RFU TMEM53 (11763286_at) / Fold change /veh TMEM53 (11763286_at) / RFU MAGEB2 (11727129_at) / Fold change /veh MAGEB2 (11727129_at) / RFU TMEM200A (11744735_a_at) / Fold change /veh TMEM200A (11744735_a_at) / RFU CCDC152 (11751479_a_at) / Fold change /veh CCDC152 (11751479_a_at) / RFU FAM211A (11726209_a_at) / Fold change /veh FAM211A (11726209_a_at) / RFU RGS16 (11746705_a_at) / Fold change /veh RGS16 (11746705_a_at) / RFU VCAN (11755009_s_at) / Fold change /veh VCAN (11755009_s_at) / RFU RHOB (11743442_s_at) / Fold change /veh RHOB (11743442_s_at) / RFU RGS16 (11720943_a_at) / Fold change /veh RGS16 (11720943_a_at) / RFU RGS16 (11720944_at) / Fold change /veh RGS16 (11720944_at) / RFU, VPS4B / Fold change vs veh, VPS4B / RFU, CREB1 / Fold change vs veh, CREB1 / RFU, DNAJC13 / Fold change vs veh, DNAJC13 / RFU, GNAQ / Fold change vs veh, GNAQ / RFU, CDK5R1 / Fold change vs veh, CDK5R1 / RFU, ZRANB3 / Fold change vs veh, ZRANB3 / RFU, CUL4A / Fold change vs veh, CUL4A / RFU, CCNY / Fold change vs veh, CCNY / RFU, UFL1 / Fold change vs veh, UFL1 / RFU, COG3 / Fold change vs veh, COG3 / RFU, DIAPH2 / Fold change vs veh, DIAPH2 / RFU, SKA2 / Fold change vs veh, SKA2 / RFU, AFF3 / Fold change vs veh, AFF3 / RFU, LMF1 / Fold change vs veh, LMF1 / RFU, IPO11 / Fold change vs veh, IPO11 / RFU, DFFB / Fold change vs veh, DFFB / RFU, FOXP1 / Fold change vs veh, FOXP1 / RFU, CARD8 / Fold change vs veh, CARD8 / RFU, STRN3 / Fold change vs veh, STRN3 / RFU, ADK / Fold change vs veh, ADK / RFU, RASSF2 / Fold change vs veh, RASSF2 / RFU, WIPF1 / Fold change vs veh, WIPF1 / RFU, LARP1B / Fold change vs veh, LARP1B / RFU, RASA1 / Fold change vs veh, RASA1 / RFU, RB1 / Fold change vs veh, RB1 / RFU, PPFIA1 / Fold change vs veh, PPFIA1 / RFU, MAT2A / Fold change vs veh, MAT2A / RFU, CCT5 / Fold change vs veh, CCT5 / RFU, WDR92 / Fold change vs veh, WDR92 / RFU, CUX1 / Fold change vs veh, CUX1 / RFU, TTC7A / Fold change vs veh, TTC7A / RFU, TMEM135 / Fold change vs veh, TMEM135 / RFU, DEPTOR / Fold change vs veh, DEPTOR / RFU, CPM / Fold change vs veh, CPM / RFU, DNAJB6 / Fold change vs veh, DNAJB6 / RFU, CACNA2D3 / Fold change vs veh, CACNA2D3 / RFU, DTX4 / Fold change vs veh, DTX4 / RFU, TFCP2 / Fold change vs veh, TFCP2 / RFU, GMCL1 /// GMCL1P1 / Fold change vs veh, GMCL1 /// GMCL1P1 / RFU, AEBP2 / Fold change vs veh, AEBP2 / RFU, SNHG1 /// SNORD22 /// SNORD25 /// SNORD26 /// SNORD27 /// SNORD28 /// SNORD29 /// SNORD31 / Fold change vs veh, SNHG1 /// SNORD22 /// SNORD25 /// SNORD26 /// SNORD27 /// SNORD28 /// SNORD29 /// SNORD31 / Fold change (Aza/veh), C12orf56 (ProbeSet 11735607_a_at) / Fold change (ACY-1035/veh), C12orf56 (ProbeSet 11735607_a_at) / Fold change (Aza/veh), FGFR1OP (ProbeSet 11751329_s_at) / Fold change (ACY-1035/veh), FGFR1OP (ProbeSet 11751329_s_at) / Fold change (Aza/veh), VPS36 (ProbeSet 11739960_a_at) / Fold change (ACY-1035/veh), VPS36 (ProbeSet 11739960_a_at) / RFU SYPL1 (11715823_x_at) / Fold change /veh SYPL1 (11715823_x_at) / RFU IGFBP7 (11715501_s_at) / Fold change /veh IGFBP7 (11715501_s_at) / RFU REEP3 (11722064_at) / Fold change /veh REEP3 (11722064_at) / RFU IGLL1 (11728026_x_at) / Fold change /veh IGLL1 (11728026_x_at): dose or concentration left out as unconfirmed
# Details: ProbeSet 11723475_a_at; LIST B
structure (smiles),measurement,value
Nc1ncn([C@@H]2O[C@H](CO)[C@@H](O)[C@H]2O)c(=O)n1 [azacitidine],"RFU, TRMT61B",139.59 RFU
